Test results: patent US12383196B2, “Treatment of depression using machine learning” (The Board of Trustees of the Leland Stanford Junior …, priority 2018, dated 2025)

Tested on: medication-free depressed outpatients
Experiment: EMBARC placebo-controlled randomized clinical trial, treatment response on HAMD17
Type: in vivo, human
Details: for response rate (≥50% reduction in symptoms): sertraline arm, 8 weeks, 50-200 mg
Source text: Data were drawn from four studies. Establishment of the treatment-predictive rsEEG signature was accomplished with data from the Establishing Moderators and Biosignatures of Antidepressant Response in Clinic Care (EMBARC) study^21. EMBARC is the largest neuroimaging-coupled placebo-controlled randomized clinical trial (RCT) in depression to date and involved randomization of 309 medication-free depressed outpatients to receive either the selective serotonin reuptake inhibitor (SSRI) sertraline or placebo for eight weeks (FIG. 8). Of these, 228 had high-quality rsEEG data. We then compared the predictive utility of this algorithm against conventional machine learning approaches on the EEG data as well as a predictive model built on clinical data alone. The generalizability of the antidepressant-predictive signature was then tested in a second independent sample of depressed patients (N=72), for whom we had historical information about treatment response during the current depressive episode. A third independent sample of depressed patients (N=24) was used to assess two features of the treatment-predictive rsEEG signature: convergent validity and neurobiological significance. […] We also tested in the third sample whether regions that were prominent in the rsEEG signature reflected individual differences in cortical responsivity, as directly assessed through single pulse transcranial magnetic stimulation (TMS) during concurrent EEG recording. […]
To simply visualize how the SELSER predictions in FIG. 2A could be used for treatment stratification, we partitioned the patients in each arm by applying an arbitrary median split on the cross-validated predicted HAMD17 score changes derived from the sertraline alpha REO model. We then calculated the rates of treatment response (≥50% reduction in symptoms) for the portion of patients above the median (“high”) and below the median (“low”), respectively, based on the model-predicted HAMD17 change scores (FIG. 2E). […]

## CN[C@H]1CC[C@@H](c2ccc(Cl)c(Cl)c2)c2ccccc21 [sertraline]
Only for patients at the higher range of predicted HAMD17 score changes
  efficacy versus placebo: superior to placebo
High group (above median of cross-validated predicted HAMD17 score change, sertraline alpha REO model)
  response rate (≥50% reduction in symptoms): 65%
Low group (below median of cross-validated predicted HAMD17 score change, sertraline alpha REO model)
  response rate (≥50% reduction in symptoms): 20%
